Assay results from patent US20240139178A1, “METHOD FOR MANUFACTURING COMPOSITION FOR COMPOSITION FOR INCREASING COGNITIVE FUNCTION” (priority 2018, published 2024).

Key:
[1] = molecular target: T1, Aβ1-42 (Homo sapiens, UniProt P05067); assay: Aβ disaggregation test of rifamycin-based derivatives by Thioflavin T analysis; type: biochemical; settings: 50 μM compound, 50 μM Aβ1-42 aggregated 3 days, then 2 days of reaction
T1 construct: human A81-42 monomers (UniProtKB-P05067, a.a. 672-713)
Description: The compound was then used diluted with 6% DMSO (in DW).
The Aβ solution was prepared by dissolving Aβ 1-42 monomers to the concentration of 10 mM in DMSO. Thereafter, the mixture was diluted to 100 μM by using DW and stored on ice.
On the other hand, Thioflavin-T was dissolved to the concentration of 5 mM in 50 mM glycine buffer (pH 8.5). Then, the resultant solution was diluted to the concentration of 50 μM by using 50 mM glycine buffer (pH 8.5) and stored in the dark while light was blocked.
The Aβ solution prepared in Example 3.1. was placed in 1.5 mL microcentrifuge tubes, each having 50 μM of the Aβ solution, and then reacted at 37° C. for 72 hours.
Each 1.5 mL microcentrifuge tube was treated with 50 μM rifapentine-based derivatives, followed by reaction at 37° C. for 48 hours.
(§1) 25 μL of the reaction solution in which the reaction was completed was added to each well of a 96-well fluorescence assay plate, and 75 μL of the Thioflavin-T solution prepared above was added to each well. After reacting for 5 minutes in the dark at room temperature, fluorescence values were measured at excitation 450 nm and emission 485 nm by using a multi-mode microplate reader.
The fluorescence value of the group (control) treated with Aβ alone and aggregated for 72 hours by treating only Aβ was considered as 100%, and the measured fluorescence values were expressed as a relative value thereto, and results thereof are shown in FIG. 7.

[2] = molecular target: T1, Aβ1-42; assay: Aβ aggregation inhibition test (Thioflavin T analysis); type: biochemical; settings: 20 μM compound, 50 μM Aβ, 3 days; relative to control (100%)
Description: Then, the compound was used diluted by using 6% DMSO (in DW) and used.
Triflupromazine hydrochloride (triflupromazine used in all the examples below is triflupromazine hydrochloride) was dissolved to a concentration of 5 mM in DMSO. The compound was then used diluted with 6% DMSO (in DW).
The Aβ solution was prepared by dissolving human A81-42 monomers (UniProtKB-P05067, a.a. 672-713) to 10 mM concentration in DMSO. Thereafter, the mixture was diluted to 100 uM by using DW and stored on ice.
On the other hand, Thioflavin-T (Sigma-Aldrich) was dissolved to the concentration of 5 mM in 50 mM glycine buffer (pH 8.5). Then, the resultant solution was diluted to the concentration of 50 μM by using 50 mM glycine buffer (pH 8.5) and stored in the dark while light was blocked.
as §1
The fluorescence value of the group (control) treated with Aβ alone and aggregated for 72 hours was considered as 100%, and the measured fluorescence values were expressed as a relative value thereto, and results thereof are shown in FIG. 1 and FIG. 2.
In addition, by performing the same test as described above for 20 μM of various compounds using 50 μM Aβ, the degree of Aβ aggregation was measured, and the result is expressed as a relative value for control (100%).

T1 sequence (P05067 672-713): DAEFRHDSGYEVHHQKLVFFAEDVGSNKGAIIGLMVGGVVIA

| Molecule | Aβ disaggregation effect compared to the control [1] | Aggregation (%) [2] |
| --- | --- | --- |
| 3-[[[4-(2-Methylpropyl)-1-piperazinyl]imino]methyl]rifamycin [rifamdin] | about 50% |  |
| CO[C@H]1/C=C/O[C@@]2(C)Oc3c(C)c(O)c4c(O)c(c5c(nc6cc(C)ccn65)c4c3C2=O)NC(=O)/C(C)=C\C=C\[C@H](C)[C@H](O)[C@@H](C)[C@@H](O)[C@@H](C)[C@H](OC(C)=O)[C@@H]1C (relative stereo) [rifaximin, [2S-(2R*,16Z,18E,20R*,21R*,22S*,23S*,24S*,25R*,26S*,27R*,22E)]-25-acetyloxy) -5,6,21,23-tetrahydroxy-27-methoxy-2,4,11,16,20,22,24,26-octamethyl-2,7-(epoxypentadeca [1,11,13] trienimino) benzofuro [4,5-e] pyrido [1,2-a] benzimidazole-1,15 (2H) -dione] | significant disaggregation did not occur |  |
| CCN1CCCC1CNC(=O)c1cc(S(=O)(=O)CC)c(N)cc1OC (stereo not drawn) [Amisulpride] |  | 96.29% |
| CN1CCN(C2=Nc3cc(Cl)ccc3Nc3ccccc32)CC1 [Clozapine] |  | 99.14% |
| CC12CC3CC(C)(C1)CC(N)(C3)C2 [Mementine] |  | 95.84% |
| Cc1nc2n(c(=O)c1CCN1CCC(c3noc4cc(F)ccc34)CC1)CCCC2 [Risperidone] |  | 117.68% |
| CN1CCN(CC/C=C2/c3ccccc3Sc3ccc(S(=O)(=O)N(C)C)cc32)CC1 [Thiothixene] |  | 125.23% |
| CO[C@H]1/C=C/O[C@@]2(C)Oc3c(C)c(O)c4c(O)c(c(/C=N/N5CCN(C)CC5)c(O)c4c3C2=O)NC(=O)/C(C)=C\C=C\[C@H](C)[C@H](O)[C@@H](C)[C@@H](O)[C@@H](C)[C@H](OC(C)=O)[C@@H]1C [rifampicin, 5,6,9,17,19,21-hexahydroxy-23-methoxy-2,4,12,16,18,20,22-heptamethyl-8-[N-(4-methyl-1-piperazinyl) formimidoyl]-2,7-(epoxypentadeca [1,11,13]trienimino)-naphtho [2,1-b] furan-1,11 (2H) -dione 21-acetate] | about 50% |  |
| CO[C@H]1/C=C/O[C@@]2(C)Oc3c(C)c(O)c4c(O)c(cc(OCC(=O)O)c4c3C2=O)NC(=O)/C(C)=C\C=C\[C@H](C)[C@H](O)[C@@H](C)[C@@H](O)[C@@H](C)[C@H](OC(C)=O)[C@@H]1C [rifamycin B, {[(2S,12Z,14E,16S,17S,18R,19R,20R,21S,22R,23S,24E)-21-(acetyloxy)-5,6,17,19-tetrahydroxy-23-methoxy-2,4,12,16,18,20,22-heptamethyl-1,11-dioxo-1,2-dihydro-2,7-(epoxypentadeca[1,11,13]trienoimino)naphtho[2,1-b]furan-9-yl]oxy}acetic acid] | significant disaggregation did not occur |  |
| CO[C@H]1/C=C/O[C@@]2(C)Oc3c(C)c(O)c4c(c3C2=O)C(=O)C=C(NC(=O)/C(C)=C\C=C\[C@H](C)[C@H](O)[C@@H](C)[C@@H](O)[C@@H](C)[C@H](OC(C)=O)[C@@H]1C)C4=O [rifamycin S, 5,17,19,21-tetrahydroxy-23-methoxy-2,4,12,16,18,20,22-heptamethyl-2,7-(epoxypentadeca[1,11,13]trienimino)naphtho[2,1-b]furan-1,6,9,11(2H)-tetrone 21-acetate] | 25% |  |
| CO[C@H]1/C=C/O[C@@]2(C)Oc3c(C)c(O)c4c(O)c(cc(O)c4c3C2=O)NC(=O)/C(C)=C\C=C\[C@H](C)[C@H](O)[C@@H](C)[C@@H](O)[C@@H](C)[C@H](OC(C)=O)[C@@H]1C [rifamycin SV, 5,6,9,17,19,21-Hexahydroxy-23-methoxy-2,4,12,16,18,20,22-heptamethyl-2,7-(epoxypentadeca[1,11,13]trienimino)naphtho[2,1-b]furan-1,11(2H)-dione 21-acetate] | about 50% |  |
| COC1C=COC2(C)Oc3c(C)c(O)c4c(O)c(c5c(c4c3C2=O)=NC2(CCN(CC(C)C)CC2)N=5)NC(=O)C(C)=CC=CC(C)C(O)C(C)C(O)C(C)C(OC(C)=O)C1C [ripabutin, (S,12E,14S,15R,16S,17R,18R,19R,20S,21S,22E,24Z)-6,16,18,20-tetrahydroxy-1′-isobutyl-14-methoxy-7,9,15,17,19,21,25-heptamethyl-spiro[9,4-(epoxypentadeca[1,11,13]trienimino)-2H-furo[2″,3″:7,8]naphth[1,2-dimidazole-2,4″-piperidine]-5,10,26-(3H,9H)-trione-16-acetate] | about 50% |  |
